Read-outs that look alike come from different tables or passages of the source. Where a SMILES comes first, the peptide text is derived from it. [ ]: non-standard residue; d: D form. Abu = CC[C@H](N)C(=O)O
Assays:
[1] = target: T1, full-length hepatitis C viral protein NS3•4A (Hepatitis C virus genotype 1a, UniProt P27958); assay: biochemical; parameters: species or system HCV sub-type strain 1a; conditions: apparent Ki class
T1 construct: hexa-histidine (N); made in house; host or cells: Sf9 insect cells (baculovirus, pVL1392)

HCV NS3 protease domain [2] = target: T2, HCV NS3 protease domain (Hepatitis C virus genotype 1b, UniProt Q9WMX2); assay: biochemical; conditions: apparent Ki class
T2 construct: The first 181 amino acids of NS3 (residues 1027-1207 of the viral polyprotein); hexa-histidine (C); made in house; host or cells: E. coli BL21/DE3 pLysS

HCV NS3 protease domain [3] = target: T2, HCV NS3 protease domain; assay: Determination of Km and Vmax for peptide substrates; assay type: biochemical; conditions: enzyme NS3 protease domain; peptide substrate varied 3-200 μM; Michaelis-Menten fit
Experimental: This assay is a modification of that described by Landro, et al. (Landro J A, Raybuck S A, Luong Y C, O'Malley E T, Harbeson S L, Morgenstern K A, Rao G and Livingston D L. Biochemistry 1997, 36, 9340-9348), and uses a peptide substrate (NS5AB), based on the NS5A/NS5B cleavage site for genotype 1a HCV. The substrate stock solution (25 mM) was prepared in DMSO containing 0.2 M DTT and stored at −20° C. A synthetic peptide cofactor (KK4A) was used as a substitute for the central core region of NS4A. The reaction was performed in a 96-well microtiter plate format using 25 ηM to 50 ηM HCV NS3 protease domain in buffer containing 50 mM HEPES pH 7.8, 100 mM NaCl, 20% glycerol, 5 mM DTT and 25 μM KK4A. The final DMSO concentration was no greater than 2% v/v. […]
The SMSY product was separated from substrate and KK4A using a microbore separation method. […] The SMSY product peak was quantitated using the data collected at […].
To determine the kinetic parameters Km and Vmax, the HCV NS3 protease domain or HCV NS3•4A was reacted with peptide substrate under the assay conditions described above. […] The ratio of the product peak area (as determined by reverse phase HPLC) to the reaction time yielded a rate of enzyme catalyzed hydrolysis. […] The value of kcat was determined from Vmax using the nominal protease concentration and a fully cleaved substrate peptide as an instrument calibration standard.

HCV NS3•4A = target: T3, HCV NS3•4A (Hepatitis C virus genotype 1a, UniProt P27958); assay: as above; assay type: biochemical, HCV sub-type strain 1a; conditions: enzyme NS3•4A; peptide substrate varied 3-200 μM; Michaelis-Menten fit
T3 construct: hexa-histidine (N); made in house; host or cells: Sf9 insect cells (baculovirus, pVL1392)
Experimental: (§1) This assay follows the cleavage of a peptide substrate by full-length hepatitis C viral protein NS3•4A. One of three peptide substrates based on the NS5A/NS5B cleavage site for genotype 1a HCV is used to measure enzyme activity. All substrate stock solutions (25 mM) were prepared in DMSO containing 0.2M DTT and stored at −20° C. A synthetic peptide cofactor (NS4A Peptide) was used to supplement NS4A. Peptide sequences are shown below. The hydrolysis reaction was performed in a 96-well microtiter plate format using 100 ηM to 125 ηM HCV NS3•4A in buffer containing 50 mM HEPES pH 7.8, 100 mM NaCl, 20% glycerol, 5 mM DTT and 25 μM NS4A Peptide. The final DMSO concentration was no greater than 2% v/v. Reactions using NS5AB or NS5AB-EDANS as substrate were quenched by the addition of 10% trifluoroacetic acid (TFA) to yield a final TFA concentration of 2.5%. Reactions using FITC-NS5AB-1 as substrate were quenched by the addition of 0.4M formic acid to yield a final concentration of 0.08M acid.
(§2) Enzymatic activity was assessed by separation of substrate and products by reverse phase HPLC. The instrument used was a Agilent 1100 with a G1322A degasser, either a G1312A binary pump or a G1311A quaternary pump, a G1313A autosampler, a G1316A column thermostated chamber, a G1321A fluorescence detector and a G1315A diode array detector. The column thermostat was at 40° C. […] The C-terminal product peak (NH2-SMSY-COOH) was quantitated using the absorbance data collected at 210 ηm. […] The C-terminal product peak (NH2-SMSYT-Asp(EDANS)-KKK-COOH) was quantitated using the fluorescence data collected at 350 ηm excitation/490 ηm emission. […] The N-terminal product peak (FITC-Ahx-EDVV-(alpha)Abu-C—COOH) was quantitated using the fluorescence data collected at 440 nm excitation/520 nm emission. Alternatively, the ratio of N-terminal product to unreacted FITC-NS5AB-1 substrate was determined using a Caliper LabChip 3000 with detection at 488 nm excitation/530 nm emission, using a chip buffer of 100 mM Tris pH 7.0, 10 mM EDTA, 0.01% (v/v) Brij-35, and 0.1% (v/v) CR-3. […]

[4] = system: CC[C@H](NC(=O)[C@@H](NC(=O)[C@@H](NC(=O)[C@H](CC(=O)O)NC(=O)[C@@H](N)CCC(=O)O)C(C)C)C(C)C)C(=O)N[C@@H](CS)C(=O)N[C@@H](CO)C(=O)N[C@@H](CCSC)C(=O)N[C@@H](CO)C(=O)N[C@@H](Cc1ccc(O)cc1)C(=O)N[C@H](C(=O)N[C@@H](CC(=O)NCCNc1cccc2c(S(=O)(=O)O)cccc12)C(=O)N[C@@H](CCCCN)C(=O)N[C@@H](CCCCN)C(=O)N[C@@H](CCCCN)C(=O)O)[C@@H](C)O; assay: as above; assay type: biochemical, HCV sub-type strain 1a; conditions: other: enzyme NS3•4A; peptide substrate varied 3-200 μM; Michaelis-Menten fit; 40.0 °C
Experimental: as §1, §2

[5] = Enzyme Assay 2 (HCV NS3 Peptide Cleavage Assay) activity
[6] = Enzyme Assay 1 (HCV NS3 Protease Domain Peptide Cleavage Assay) activity

Row | Compound | Ki [1, 5] [nM] | Ki (HCV NS3 protease domain [2]; [6]) [nM] | other results
1 | CCC[C@H](NC(=O)[C@@H]1C[C@]2(CC(c3cccc(Cl)c3)=NO2)CN1C(=O)[C@@H](NC(=O)CC1CCC(C)(O)CC1)C(C)(C)C)C(=O)C(=O)NC1CC1 (stereo partly drawn) [Compound 575] |  |  | Ki ([1]; read-out: Enzyme Assay 2 (HCV NS3 Peptide Cleavage Assay) activity): < 100 nM; Ki (HCV NS3 protease domain [2]; read-out: Enzyme Assay 1 (HCV NS3 Protease Domain Peptide Cleavage Assay) activity): < 100 nM
2 | CCC[C@H](NC(=O)[C@@H]1C[C@]2(CC(c3cccc(Cl)c3)=NO2)CN1C(=O)C1=CC(c2cc(OC)ccc2OC)NC(=O)N1)C(=O)C(=O)NC1CC1 (stereo partly drawn) [Compound 586] | > 500 | > 500 | 
3 | CCC[C@H](NC(=O)[C@@H]1C[C@]2(CC(c3cccc(Cl)c3)=NO2)CN1C(=O)[C@H](CC(C)C)NS(=O)(=O)c1ccc(OC)cc1)C(=O)C(=O)NC1CC1 [Compound 587] | 100 to 500 | > 500 | 
4 | CCC[C@H](NC(=O)[C@@H]1C[C@]2(CC(c3cccc(Cl)c3)=NO2)CN1C(=O)[C@@H](NC(=O)CC1CCCCC1)C(C)(C)C)C(=O)C(=O)Nc1cccc(C#N)c1 [Compound 588] | > 500 | > 500 | 
5 | CC[C@H](NC(=O)[C@@H](NC(=O)[C@@H](NC(=O)[C@H](CC(=O)O)NC(=O)[C@@H](N)CCC(=O)O)C(C)C)C(C)C)C(=O)N[C@@H](CS)C(=O)N[C@@H](CO)C(=O)N[C@@H](CCSC)C(=O)N[C@@H](CO)C(=O)N[C@@H](Cc1ccc(O)cc1)C(=O)O [DomainNS5AB] (H-EDVV[Abu]CSMSY-OH) |  |  | Km (HCV NS3 protease domain [3]): 25 µM
6 | CC[C@H](NC(=O)[C@@H](NC(=O)[C@@H](NC(=O)[C@H](CC(=O)O)NC(=O)[C@@H](N)CCC(=O)O)C(C)C)C(C)C)C(=O)N[C@@H](CS)C(=O)N[C@@H](CO)C(=O)N[C@@H](CCSC)C(=O)N[C@@H](CO)C(=O)N[C@@H](Cc1ccc(O)cc1)C(=O)O [NS5AB, NH2-EDVV-(alpha)Abu-CSMSY-COOH] (H-EDVV[Abu]CSMSY-OH) |  |  | Km (HCV NS3•4A): 30 µM
7 | HCV NS3•4A (Hepatitis C virus (isolate H77)) |  |  | Km [4]: 56 µM; kcat/Km [4]: 1400 M⁻¹ s⁻¹

Reference: patent publication US7964624B1, “Inhibitors of serine proteases” (priority 2005, dated 2011)
